Data reported in patent US9758445B2, “Preparation of surfactants via cross-metathesis” (MATERIA, INC., priority 2013, dated 2017).
Like-named read-outs stand apart in the source and are kept apart here.

Key:
[1] = Surfactant Foaming Test in tap water; type: physicochemical; set-up: key: A: No Foam Generated; B: Small Volume of Foam Generated; C: Large Volume of Foam Generated; conditions: surfactant 0.023 wt %, tap water 7.0 mL, 23° C., shaken vigorously, foaming recorded after standing 3 minutes
Description: To a 20 mL scintillation vial was added surfactant (0.023 wt %) and tap water (7.0 mL, 23° C.). The vial was sealed and the solution was shaken vigorously. The solution was allowed to stand for 3 minutes and foaming was recorded.

[2] = Krafft Point from the abrupt increase in electrical conductivity as a function of temperature; type: physicochemical
Description: Krafft Point or Krafft Temperature is defined as the […]. Surfactants form micelles above their Krafft Point and the solubility in water increases abruptly. The Krafft point was determined by the abrupt increase in the electrical conductivity of as a function of temperature. The intersection of the two solubility lines is the Krafft Point.

[3] = Surface tension above CMC; type: physicochemical
[4] = Critical Micelle Concentration (CMC) from the electrical conductivity-concentration curve at constant temperature; type: physicochemical
Description: The Critical Micelle Concentration (CMC) is defined as the concentration of surfactants above which micelles form and all additional surfactants added to the system go to micelles. The CMC is measured by the electrical conductivity-concentration curve at constant temperature.

[5] = at 20° C.; purity 91%; N. M. van Os et al. Tenside Surf. Det. 1992, 29 175; cited from earlier work
[6] = purity 91%; N. M. van Os et al. Tenside Surf. Det. 1992, 29 175; cited from earlier work

SMILES | Surfactant Foaming Test Results [1] | other results
CCCCCCCCCCCCCCC(C)c1ccc(COCCOCCOCCOCCOC)cc1 (centres unmarked) [R=CH2O(CH2CH2O)4CH3; n=13, 1-(4-(Hexadecan-2-yl)phenyl)-2,5,8,11,14-pentaoxapentadecane] | B | 
CCCCCCCCC(C)c1ccccc1 (centres unmarked) [R=H; n=7, 2-Phenyldecane] | A | 
CCCCCCCCCC(C)c1ccc(S(=O)(=O)O)cc1 (centres unmarked) [2-PhC11 LAS, sodium 4-(undecan-2-yl)benzenesulfonate] |  | Krafft Point [2]: 23.0 °C; Surface Tension [3]: 43 dynes/cm; CMC (mmol/L) at Temp (° C.) ([4]; at 22.0° C.): 1.9 at 22.0 °C mmol/L
CCCCCCCCCCCCCCC(C)c1ccc(CO)cc1 (centres unmarked) [R=CH2OH; n=13, (4-(Hexadecan-2-yl)phenyl)methanol] | A | 
CCCCCCCCCCCC(C)c1ccc(COCCOCCOCCOCCO)cc1 (centres unmarked) [R=CH2O(CH2CH2O)4H; n=10, 1-(4-(Tridecan-2-yl)phenyl)-2,5,8,11-tetraoxatridecan-13-ol] | C | 
CCCCCCCCCC(C)c1ccccc1 (centres unmarked) [R=H; n=8, 2-Phenylundecane] | A | 
CCCCCCCCCCCC(C)c1ccc(CO)cc1 (centres unmarked) [R=CH2OH; n=10, (4-(Tridecan-2-yl)phenyl)methanol] | A | 
CCCCCCCCCCCC(C)c1ccccc1 (centres unmarked) [R=H; n=10, 2-phenyltridecane] | A | 
CCCCCCCCCC(C)c1ccc(COCCOCCOCCOCCO)cc1 (centres unmarked) [R=CH2O(CH2CH2O)4H; n=8, 1-(4-(Undecan-2-yl)phenyl)-2,5,8,11-tetraoxatridecan-13-ol] | C | 
CCCCCCCCCCC(C)c1ccccc1 (centres unmarked) [R=H; n=9, 2-Phenyldodecane] | A | 
CCCCCCCCC(C)c1ccc(COCCOCCOCCOCCO)cc1 (centres unmarked) [R=CH2O(CH2CH2O)4H; n=7, 1-(4-(Decan-2-yl)phenyl)-2,5,8,11-tetraoxatridecan-13-ol] | C | 
CCCCCCCCCCCCC(C)c1ccc(COCCOCCOCCOCCO)cc1 (centres unmarked) [R=CH2O(CH2CH2O)4H; n=11, 1-(4-(Tetradecan-2-yl)phenyl)-2,5,8,11-tetraoxatridecan-13-ol] | C | 
CCCCCCCCCCC(C)c1ccc(S(=O)(=O)O)cc1 (centres unmarked) [2-PhC12 LAS, sodium 4-(dodecan-2-yl)benzenesulfonate] |  | Krafft Point [2]: 22.5 °C; Surface Tension [3]: 41 dynes/cm; CMC (mmol/L) at Temp (° C.) ([4]; at 22.5° C.): 2.1 at 22.5 °C mmol/L
CCCCCCCCCCCCC(C)c1ccccc1 (centres unmarked) [R=H; n=11, 2-phenyltetradecane] | A | 
CCCCCCCCC(C)c1ccc(S(=O)(=O)O)cc1 (centres unmarked) [2-PhC10 LAS, sodium 4-(decan-2-yl)benzenesulfonate] |  | Krafft Point [2]: 22.5 °C; CMC (mmol/L) at Temp (° C.) [5]: 4.5 at 20 °C mmol/L; Surface Tension [3]: 43 dynes/cm; CMC (mmol/L) at Temp (° C.) ([4]; at 22.0° C.): 4.4 at 22.0 °C mmol/L; Krafft Point [6]: 22.0 °C (NR^2)
CCCCCCCCCC(C)c1ccc(CO)cc1 (centres unmarked) [R=CH2OH; n=8, (4-(Undecan-2-yl)phenyl)methanol] | A | 
CCCCCCCCC(C)c1ccc(CO)cc1 (centres unmarked) [R=CH2OH; n=7, (4-(Decan-2-yl)phenyl)methanol] | A | 
CCCCCCCCCCCCCCC(C)c1ccc(COCCOCCOCCOCCO)cc1 (centres unmarked) [R=CH2O(CH2CH2O)4H; n=13, 1-(4-(Hexadecan-2-yl)phenyl)-2,5,8,11-tetraoxatridecan-13-ol] | C | 
CCCCCCCCCCCCCCC(C)c1ccc(S(=O)(=O)O)cc1 (centres unmarked) [2-PhC16 LAS, sodium 4-(hexadecan-2-yl)benzenesulfonate] |  | Krafft Point [2]: 45.0 °C; Surface Tension [3]: 44 dynes/cm; CMC (mmol/L) at Temp (° C.) ([4]; at 44.0° C.): 1.5 at 44.0 °C mmol/L
CCCCCCCCCCC(C)c1ccc(COCCOCCOCCOCCO)cc1 (centres unmarked) [R=CH2O(CH2CH2O)4H; n=9, 1-(4-(Dodecan-2-yl)phenyl)-2,5,8,11-tetraoxatridecan-13-ol] | C | 
CCCCCCCCCCCCCCC(C)c1ccccc1 (centres unmarked) [R=H; n=13, 2-Phenylhexadecane] | A | 
CCCCCCCCC(C)c1ccc(COCCO)cc1 (centres unmarked) [R=CH2OCH2CH2OH; n=7, 2-((4-(Decan-2-yl)benzyl)oxy)ethanol] | A | 
CCCCCCCCCCC(C)c1ccc(CO)cc1 (centres unmarked) [R=CH2OH; n=9, (4-(Dodecan-2-yl)phenyl)methanol] | A | 

Second part, led by results:

Surfactant Foaming Test Results [1] | SMILES | other results
A | CCCCCCCCCCCCCCC(C)c1ccc(COCCO)cc1 (centres unmarked) [R=CH2OCH2CH2OH; n=13, 2-((4-(Hexadecan-2-yl)benzyl)oxy)ethanol] | 
C | CCCCCCCCCCCC(C)c1ccc(COCCOC)cc1 (centres unmarked) [R=CH2OCH2CH2OCH3; n=10, 1-((2-Methoxyethoxy)methyl)-4-(tridecan-2-yl)benzene] | 
C | CCCCCCCCC(C)c1ccc(COCCOCCOCCOCCOC)cc1 (centres unmarked) [R=CH2O(CH2CH2O)4CH3; n=7, 1-(4-(Decan-2-yl)phenyl)-2,5,8,11,14-pentaoxapentadecane] | 
A | CCCCCCCCCCCCC(C)c1ccc(CO)cc1 (centres unmarked) [R=CH2OH; n=11, (4-(Tetradecan-2-yl)phenyl)methanol] | 
B | CCCCCCCCCCC(C)c1ccc(COCCOCCOCCOC)cc1 (centres unmarked) [R=CH2O(CH2CH2O)3CH3; n=9, 1-(4-(Dodecan-2-yl)phenyl)-2,5,8,11-tetraoxadodecane] | 
C | CCCCCCCCC(C)c1ccc(COCCOCCOCCO)cc1 (centres unmarked) [R=CH2O(CH2CH2O)3H; n=7, 2-(2-(2-((4-(Decan-2-yl)benzyl)oxy)ethoxy)ethoxy)ethanol] | 
C | CCCCCCCCCCCC(C)c1ccc(COCCOCCOCCO)cc1 (centres unmarked) [R=CH2O(CH2CH2O)3H; n=10, 2-(2-(2-((4-(tridecan-2-yl)benzyl)oxy)ethoxy)ethoxy)ethanol] | 
A | CCCCCCCCCCC(C)c1ccc(COCCO)cc1 (centres unmarked) [R=CH2OCH2CH2OH; n=9, 2-((4-(Dodecan-2-yl)benzyl)oxy)ethanol] | 
C | CCCCCCCCCCCCC(C)c1ccc(COCCOC)cc1 (centres unmarked) [R=CH2OCH2CH2OCH3; n=11, 1-((2-Methoxyethoxy)methyl)-4-(tetradecan-2-yl)benzene] | 
C | CCCCCCCCCCC(C)c1ccc(COCCOCCOCCO)cc1 (centres unmarked) [R=CH2O(CH2CH2O)3H; n=9, 2-(2-(2-((4-(dodecan-2-yl)benzyl)oxy)ethoxy)ethoxy)ethanol] | 
B | CCCCCCCCC(C)c1ccc(COCCOC)cc1 (centres unmarked) [R=CH2OCH2CH2OCH3; n=7, 1-(Decan-2-yl)-4-((2-methoxyethoxy)methyl)benzene] | 
C | CCCCCCCCCC(C)c1ccc(COCCOCCOCCO)cc1 (centres unmarked) [R=CH2O(CH2CH2O)3H; n=8, 2-(2-(2-((4-(undecan-2-yl)benzyl)oxy)ethoxy)ethoxy)ethanol] | 
B | CCCCCCCCCC(C)c1ccc(COCCOCCOCCOCCOC)cc1 (centres unmarked) [R=CH2O(CH2CH2O)4CH3; n=8, 1-(4-(Undecan-2-yl)phenyl)-2,5,8,11,14-pentaoxapentadecane] | 
A | CCCCCCCCC(C)c1ccc(COCCOCCOCCOC)cc1 (centres unmarked) [R=CH2O(CH2CH2O)3CH3; n=7, 1-(4-(Decan-2-yl)phenyl)-2,5,8,11-tetraoxadodecane] | 
A | CCCCCCCCCCCC(C)c1ccc(COCCO)cc1 (centres unmarked) [R=CH2OCH2CH2OH; n=10, 2-((4-(Tridecan-2-yl)benzyl)oxy)ethanol] | 
C | CCCCCCCCCCC(C)c1ccc(COCCOCCOCCOCCOC)cc1 (centres unmarked) [R=CH2O(CH2CH2O)4CH3; n=9, 1-(4-(Dodecan-2-yl)phenyl)-2,5,8,11,14-pentaoxapentadecane] | 
A | CCCCCCCCCCCCC(C)c1ccc(COCCO)cc1 (centres unmarked) [R=CH2OCH2CH2OH; n=11, 2-((4-(Tetradecan-2-yl)benzyl)oxy)ethanol] | 
C | CCCCCCCCCCCCC(C)c1ccc(COCCOCCOCCO)cc1 (centres unmarked) [R=CH2O(CH2CH2O)3H; n=11, 2-(2-(2-((4-(tetradecan-2-yl)benzyl)oxy)ethoxy)ethoxy)ethanol] | 
C | CCCCCCCCCCCCCCC(C)c1ccc(COCCOC)cc1 (centres unmarked) [R=CH2OCH2CH2OCH3; n=13, 1-(Hexadecan-2-yl)-4-((2-methoxyethoxy)methyl)benzene] | 
A | CCCCCCCCCC(C)c1ccc(COCCO)cc1 (centres unmarked) [R=CH2OCH2CH2OH; n=8, 2-((4-(Undecan-2-yl)benzyl)oxy)ethanol] | 
B | CCCCCCCCCCCCC(C)c1ccc(COCCOCCOCCOC)cc1 (centres unmarked) [R=CH2O(CH2CH2O)3CH3; n=11, 1-(4-(Tetradecan-2-yl)phenyl)-2,5,8,11-tetraoxadodecane] | 
B | CCCCCCCCCCCCC(C)c1ccc(COCCOCCOCCOCCOC)cc1 (centres unmarked) [R=CH2O(CH2CH2O)4CH3; n=11, 1-(4-(Tetradecan-2-yl)phenyl)-2,5,8,11,14-pentaoxapentadecane] | 
B | CCCCCCCCCCCC(C)c1ccc(COCCOCCOCCOCCOC)cc1 (centres unmarked) [R=CH2O(CH2CH2O)4CH3; n=10, 1-(4-(Tridecan-2-yl)phenyl)-2,5,8,11,14-pentaoxapentadecane] | 
